Source: US20070254882A1, “Sulfamide Derivatives and Pharmaceutical Composition for Upregulation of Lipid Metabolism Comprising Same” (CRYSTAL GENOMICS, INC., priority 2004, published 2007)

molecular target: T1, human PPAR α (Homo sapiens, UniProt Q07869); experiment: Exogeneous PPAR α agonist assay (GAL4 DNA binding domain/PPAR α ligand binding domain, luciferase) in 293T cells; type: cell-based; parameters: scale not given here; settings: 25 μM compound, 48 hours, luciferase activity increase relative to the control
T1 construct: expressed in transfected cells; host or cells: HepG2 (ATCC HB-8065) or 293T cells (ATCC CRL-1573)
T1 sequence (Q07869 239-466 limits assumed): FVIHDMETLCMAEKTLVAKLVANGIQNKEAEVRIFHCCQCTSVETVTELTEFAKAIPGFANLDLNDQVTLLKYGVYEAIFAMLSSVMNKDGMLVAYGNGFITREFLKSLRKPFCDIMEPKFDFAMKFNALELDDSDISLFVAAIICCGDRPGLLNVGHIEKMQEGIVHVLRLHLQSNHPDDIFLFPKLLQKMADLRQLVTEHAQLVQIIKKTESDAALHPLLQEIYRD
Description: Step 1) Exogeneous PPAR α Agonist Assay
Cross-activation assay of the compounds of Examples 1 to 134 against human PPAR α was carried out using a DNA construct of PPAR α including its ligand binding domain and GAL4 DNA binding domain (Sher et al., Biochemistry 32, 5598-5604, 1993) to analyze whether any of the compounds binds to the ligand binding domain of PPAR α expressed by the construct to affect the PPAR α activity. When the GAL4 DNA binding domainm which is fused with PPAR α ligand binding domain, binds to UAS (upstream activation sequence) of firefly-luciferase, the luciferase is expressed. Therefore, the effect of each of the compounds of Examples on PPAR α activation can be evaluated by analyzing the activation of luciferase.
Specifically, 2×10^4 of HepG2 (ATCC HB-8065) or 293T cells (ATCC CRL-1573) were aliquotted into each well of a 96-well plate and cultured for overnight at 37° C. in a CO2 incubator (culture condition: DMEM, 10% FBS and 1% antibiotics).
The transformation of PPAR α DNA was traced as follows. First, a mixture of the following ingredients in amounts per well; Solution A (Promega) containing 50 ng of full length human PPAR α DNA, 50 ng of firefly-luciferase construct, 5 ng of Renilla-luciferase construct, 1.0 μl of PLUS™ reagent, and 8.3 μl of a serum-free medium containing no antibiotics; was prepared and kept at room temperature for 15 min. Solution B, which contained 0.5 μl of Lipofectamine™ reagent and 9.5 μl of serum-free medium without antibiotics per well, and Solution C, which contained 50 μl of serum-free medium per well), were prepared. Solutions A, B and C were mixed together to prepare lipofectamin-DNA complex, and the mixture was kept at room temperature for 15 min. Single layer of cells on each well of a 96-well plate were washed with serum-free DMEM, 70 μl of lipofectamine-DNA complex prepared above was added thereto, the plate was incubated at 37° C. in a 5% CO2 incubator for 3 hours to transform the cells, and […] of a diluted solution of each of the compounds of Examples 1 to 134 per well was added to each well to a final concentration 25 μM, and incubated at 37° C. in a CO2 incubator for 48 hours. Then, the medium was removed, 50 μl of passive lysis buffer (Promega) was added thereto, and the plate was shook at room temperature for 20 min to lysis cells. 40 μl of Luciferase Assay reagent of Dual Luciferase Kit […] per 20 μl of cell lysis buffer was added to the plate, followed by reacting at 20° C. for 8 seconds, and 40 μl of Stop & Glo reagent (Promega) as a stop solution was added thereto to quench the reaction. The luminescence intensities of F-luciferase and R-luciferase were measured with MicroLumat Plus (Berthord Technology).

Row | Compound | Activity at 25 μM Step 1 293T cell
1 | Cc1oc(-c2ccccc2)nc1CCOc1ccc(CN(CC(=O)O)S(=O)(=O)N2CCc3ccccc32)cc1 [Example 116] | 2
2 | Cc1oc(-c2ccc(C(F)(F)F)cc2)nc1CCOc1ccc(CN(CC(=O)O)S(=O)(=O)N2CCc3ccccc32)cc1 [Example 118, [N-(indolinyl)sulfonyl-N-[4-[2-[2-(4-trifluoromethylphenyl)-5-methyloxazol-4-yl]ethoxy]benzyl]amino]acetic acid] | 2
3 | Cc1oc(-c2ccc(C(F)(F)F)cc2)nc1CCOc1cccc(CN(CC(=O)O)S(=O)(=O)N2CCOCC2)c1 [Example 87, [N-(morpholinyl)sulfonyl-N-[3-[2-[2-(4-trifluoromethylphenyl)-5-methyloxazol-4-yl]ethoxy]benzyl]amino]acetic acid] | 1
4 | Cc1oc(-c2ccccc2)nc1COc1ccc(CN(CC(=O)O)S(=O)(=O)N(C)c2ccc(Cl)cc2)cc1 [Example 49, [N—[[N-methyl-N-(4-chlorophenyl)]amino]sulfonyl-N-[4-[(2-phenyl-5-methyloxazol-4-yl)methoxy]benzyl]amino]acetic acid] | 3
5 | Cc1ccc(-c2nc(CCOc3ccc(CN(CC(=O)O)S(=O)(=O)N4CCCc5ccccc54)cc3)c(C)o2)cc1 [Example 121, [N-(1,2,3,4-tetrahydroquinolinyl)sulfonyl-N-[4-[2-[2-(4-methylphenyl)-5-methyloxazol-4-yl]ethoxy]benzyl]amino]acetic acid] | 2
6 | Cc1oc(-c2ccc(C(F)(F)F)cc2)nc1CCOc1cccc(CN(CC(=O)O)S(=O)(=O)NC(C)(C)C)c1 [Example 66, [N—(N-t-butylamino)sulfonyl-N-[3-[2-[2-(4-trifluoromethylphenyl)-5-methyloxazol-4-yl]ethoxy]benzyl]amino]acetic acid] | 1
7 | Cc1oc(-c2ccc(C(F)(F)F)cc2)nc1COc1cccc(CN(CC(=O)O)S(=O)(=O)N2CCc3ccccc32)c1 [Example 32, [N-(indolinyl)sulfonyl-N-[3-[[2-(4-trifluoromethylphenyl)-5-methyloxazol-4-yl]methoxy]benzyl]amino]acetic acid] | 2
8 | Cc1oc(-c2cccs2)nc1CCOc1ccc(CN(CC(=O)O)S(=O)(=O)N(C)c2ccccc2)cc1 [Example 108] | 2
9 | Cc1oc(-c2ccccc2)nc1COc1cccc(CN(CC(=O)O)S(=O)(=O)N(C)c2ccc(Cl)cc2)c1 [Example 18, [N—[[N-methyl-N-(4-chlorophenyl)]amino]sulfonyl-N-[3-[(2-phenyl-5-methyloxazol-4-yl)methoxy]benzyl]amino]acetic acid] | 2
10 | Cc1ccc(-c2nc(COc3ccc(CN(CC(=O)O)S(=O)(=O)N4CCCc5ccccc54)cc3)c(C)o2)cc1 [Example 58, [N-(1,2,3,4-tetraquinolinyl)sulfonyl-N-[4-[[2-(4-methylphenyl)-5-methyloxazol-4-yl]methoxy]benzyl]amino]acetic acid] | 4
11 | Cc1oc(-c2ccccc2)nc1CCOc1cccc(CN(CC(=O)O)S(=O)(=O)N2CCCc3ccccc32)c1 [Example 94, [N-(1,2,3,4-tetrahydroquinolinyl)sulfonyl-N-[3-[2-(2-phenyl-5-methyloxazol-4-yl)ethoxy]benzyl]amino]acetic acid] | 2
12 | Cc1oc(-c2ccc(C(F)(F)F)cc2)nc1COc1ccc(CN(CC(=O)O)S(=O)(=O)N(C)C)cc1 [Example 40, [N—(N,N-dimethylamino)sulfonyl-N-[4-[[2-(4-trifluoromethylphenyl)-5-methyloxazol-4-yl]methoxy]benzyl]amino]acetic acid] | 2
13 | Cc1oc(-c2ccccc2)nc1COc1cccc(CN(CC(=O)O)S(=O)(=O)N2CCCc3ccccc32)c1 [Example 34, [N-(1,2,3,4-tetrahydroquinolinyl)sulfonyl-N-[3-[(2-phenyl-5-methyloxazol-4-yl)methoxy]benzyl]amino]acetic acid] | 2
14 | Cc1ccc(-c2nc(CCOc3ccc(CN(CC(=O)O)S(=O)(=O)N(C)C)cc3)c(C)o2)cc1 [Example 99, [N—(N,N-dimethylamino)sulfonyl-N-[4-[2-[2-(4-methylphenyl)-5-methyloxazol-4-yl]ethoxy]benzyl]amino]acetic acid] | 2
15 | Cc1oc(-c2ccc(C(F)(F)F)cc2)nc1COc1ccc(CN(CC(=O)O)S(=O)(=O)N(C)c2ccccc2)cc1 [Example 47, [N—[(N-methyl-N-phenyl)amino]sulfonyl-N-[4-[[2-(4-trifluoromethylphenyl)-5-methyloxazol-4-yl]methoxy]benzyl]amino]acetic acid] | 2
16 | Cc1oc(-c2ccccc2)nc1CCOc1ccc(CN(CC(=O)O)S(=O)(=O)N2CCCc3ccccc32)cc1 [Example 120, [N-(1,2,3,4-tetrahydroquinolinyl)sulfonyl-N-[4-[2-(2-phenyl-5-methyloxazol-4-yl)ethoxy]benzyl]amino]acetic acid] | 2
17 | Cc1ccc(-c2nc(COc3cccc(CN(CC(=O)O)S(=O)(=O)N(C)c4ccccc4)c3)c(C)o2)cc1 [Example 15, [N—[(N-methyl-N-phenyl)amino]sulfonyl-N-[3-[[2-(4-methylphenyl)-5-methyloxazol-4-yl]methoxy]benzyl]amino]acetic acid] | 2
18 | Cc1oc(-c2ccccc2)nc1COc1ccc(CN(CC(=O)O)S(=O)(=O)N2CCc3ccccc32)cc1 [Example 53, [N-(indolinyl)sulfonyl-N-[4-[(2-phenyl-5-methyloxazol-4-yl)methoxy]benzyl]amino]acetic acid] | 2
19 | Cc1oc(-c2ccc(C(F)(F)F)cc2)nc1COc1ccc(CN(CC(=O)O)S(=O)(=O)N2CCCc3ccccc32)cc1 [Example 59, [N-(1,2,3,4-tetrahydroquinolinyl)sulfonyl-N-[4-[[2-(4-trifluoromethylphenyl)-5-methyloxazol-4-yl]methoxy]benzyl]amino]acetic acid] | 3
20 | Cc1oc(-c2ccccc2)nc1CCOc1ccc(CN(CC(=O)O)S(=O)(=O)N(C)c2ccc(Cl)cc2)cc1 [Example 109, [N—[[N-methyl-N-(4-chlorophenyl)]amino]sulfonyl-N-[4-[2-(2-phenyl-5-methyloxazol-4-yl)ethoxy]benzyl]amino]acetic acid] | 3
21 | Cc1ccc(-c2nc(COc3cccc(CN(CC(=O)O)S(=O)(=O)N(C)c4ccc(Cl)cc4)c3)c(C)o2)cc1 [Example 19, [N—[[N-methyl-N-(4-chlorophenyl)]amino]sulfonyl-N-[3-[[2-(4-methylphenyl)-5-methyloxazol-4-yl]methoxy]benzyl]amino]acetic acid] | 2
22 | Cc1ccc(-c2nc(COc3ccc(CN(CC(=O)O)S(=O)(=O)N(C)c4ccc(Cl)cc4)cc3)c(C)o2)cc1 [Example 50, [N—[[N-methyl-N-(4-chlorophenyl)]amino]sulfonyl-N-[4-[[2-(4-methylphenyl)-5-methyloxazol-4-yl]methoxy]benzyl]amino]acetic acid] | 2
23 | Cc1oc(-c2ccccc2)nc1COc1cccc(CN(CC(=O)O)S(=O)(=O)N(C)C)c1 [Example 3, [N—[(N,N-dimethylamino)sulfonyl]-N-[3-[(2-phenyl-5-methyloxazol-4-yl)methoxy]benzyl]amino]acetic acid] | 2
24 | Cc1oc(-c2cccs2)nc1CCOc1ccc(CN(CC(=O)O)S(=O)(=O)N(C)C)cc1 [Example 104, [N—(N,N-dimethylamino)sulfonyl-N-[4-[2-[2-(thiophen-2-yl)-5-methyloxazol-4-yl]ethoxy]benzyl]amino]acetic acid] | 1
